Experimental findings from PubChem BioAssay AID1996 are described below.

Molecules are shown by their SMILES. In brackets after ≈: the same amount, converted by molar mass.

For the data set the following is noted: buffer; pH 7.4; 200.0 µM.
Turning to `COc1ccc(NC(=O)C2CCCN(c3cnccn3)C2)cc1` (centres undefined), the solubility (kinetic) (usually the concentration staying in solution when a stock, usually in DMSO, is diluted into the medium) was over 46.9 µg/mL.

In turn, `CC(=O)Nc1nc2c(s1)C(=O)NCC(C)(C)C2` had a kinetic solubility of over 38 µg/mL. The result for `CCOc1ccc2[nH]c3c(NCCO)ncnc3c2c1` reads over 40.8 µg/mL; that for `O=[N+]([O-])c1ccc(S(=O)(=O)c2cccc(C(F)(F)F)c2)nc1`, 4.4 µg/mL (≈ 13.2 µM). Then `COc1ccc(CNC(=O)c2ccc3ccccc3n2)cc1`, with 18.4 µg/mL (≈ 62.9 µM); and `NS(=O)(=O)c1ccc(NS(=O)(=O)c2ccc(Br)cc2)cc1`, with over 58.7 µg/mL.

`O=C(CCN1C(=O)C2CC=CCC2C1=O)OCC(=O)c1ccc(F)cc1` (centres undefined) returned a kinetic solubility of over 53.9 µg/mL. For the molecule `CN(Cc1nc2ccccc2n1C)C(=O)c1ccco1`, the kinetic solubility was determined as 39.9 µg/mL (≈ 148 µM). Turning to `CCOCCCNC(=O)/C(C#N)=C/c1ccc(C(=O)OC)cc1`, the solubility (kinetic) is 19.1 µg/mL (≈ 60.4 µM).

In turn, `COC(=O)Cn1ccc(-c2ccc(Cl)cc2)c(C#N)c1=O` displayed a solubility (kinetic) of over 45.4 µg/mL.

As for `Cc1nnc(SC(C)C(=O)NCC2CCCO2)s1` (centres undefined), the kinetic solubility is over 43.1 µg/mL. Then `Cc1occc1C(=O)N1CCCC(Nc2ccc(F)cc2)C1` (centres undefined), with over 45.4 µg/mL.

`CCC1CCC(N2CCN(c3cccc(OC)c3)CC2)CC1` (centres undefined) gave a kinetic solubility of 32.6 µg/mL (≈ 108 µM).

`CC(SCc1ccccc1)C(=O)Nc1ccccc1` (centres undefined): the solubility (kinetic) came out at 32.1 µg/mL (≈ 118 µM). `O=S(=O)(Nc1ccccc1Cl)c1ccc(-c2ccccn2)s1` yielded a solubility (kinetic) of 35.8 µg/mL (≈ 102 µM). The result for `CC1(C(=O)OCC(=O)Nc2ccc(Cl)cn2)CC1(Cl)Cl` (centres undefined) reads over 50.6 µg/mL; that for `C=CCc1ccccc1OCC(O)CN1C(=O)c2ccccc2C1=O` (centres undefined), 46 µg/mL (≈ 136 µM).

Consider `CC(C)(C)NC(=O)NC(=O)COC(=O)Cc1c(F)cccc1Cl`, for which the solubility (kinetic) came to 15.6 µg/mL (≈ 45.2 µM). Then `COc1ccccc1NC(=O)Nc1ccc(CC#N)cc1`, with 1.4 µg/mL (≈ 4.98 µM); and `CCn1cc(S(=O)(=O)Nc2cccnc2)cn1`, with over 37.8 µg/mL.

For the molecule `CCC(C)c1ccc(NC(=O)Nc2cnccn2)cc1` (centres undefined), the solubility (kinetic) stood at 1.3 µg/mL (≈ 4.81 µM). The result for `Cc1ccc(S(=O)(=O)Nc2ccc(F)c(S(=O)(=O)N3CCOCC3)c2)cc1` reads over 62.2 µg/mL; that for `COc1cccc2cc(C(=O)OCC(=O)N3CC(C)OC(C)C3)c(=O)oc12` (centres undefined), over 56.3 µg/mL. Then `Cc1c(C(=O)N2CCCc3ccccc32)oc2ccccc12`, with 5.7 µg/mL (≈ 19.6 µM); and `O=C(c1ccco1)N1CCN(C2c3ccccc3-c3ccccc32)CC1`, with 1 µg/mL (≈ 2.9 µM). Then `NC(=O)c1cc(S(=O)(=O)NCCc2ccccc2)cs1`, with 40.3 µg/mL (≈ 130 µM); and `Cc1ccc(-c2cc(C(=O)NCC3CCCO3)c3ccccc3n2)cc1C` (centres undefined), with 4.7 µg/mL (≈ 13 µM); and `O=[N+]([O-])c1ccc(Sc2cc[n+]([O-])c3ccccc23)c([N+](=O)[O-])c1`, with 4.6 µg/mL (≈ 13.4 µM).

As to `O=C(NC(=S)Nc1ccc(CN2CCOCC2)cc1)c1cccc(F)c1`, the solubility (kinetic) is 27 µg/mL (≈ 72.3 µM). With `Cc1sc(N)nc1-c1c(C)n(C)c2ccccc12`, the solubility (kinetic) is 37.6 µg/mL (≈ 146 µM). The result for `NC1=NC(c2cccnc2)n2c(nc3ccccc32)N1` (centres undefined) reads over 39.6 µg/mL; that for `COc1ccc(-n2c(C)nc(N)c2C(=O)c2ccccc2)cc1`, 19.8 µg/mL (≈ 64.4 µM); that for `CCOc1ccccc1C(=O)NCC(=O)OCC(=O)N1CCCC1`, over 50.2 µg/mL. `CC(=O)Nc1ccc(CNC(=O)C[N+]2(C)CCOCC2)cc1.[Cl-]` showed a solubility (kinetic) of 46.2 µg/mL.

With `N#Cc1c(-c2cccnc2)c2c([nH]c1=O)-c1ccccc1OC2`, the kinetic solubility was over 45.2 µg/mL. Then `S=C(NCc1ccco1)N1CCN(c2ccccn2)CC1`, with 42.5 µg/mL (≈ 141 µM); and `Cc1ccc2[nH]c(=O)c(CN(C(=O)c3cccc([N+](=O)[O-])c3)C(C)C)cc2c1`, with 2.6 µg/mL (≈ 6.85 µM); and `O=C(NC1CCCCC1)c1ccc(N2CCOCC2)c([N+](=O)[O-])c1`, with over 50 µg/mL.

`COc1ccc(-c2cc(C3CC3)nc(N)c2C#N)cc1` gave a kinetic solubility of 1.7 µg/mL (≈ 6.41 µM). The result for `CC(=O)N1CCc2c(sc(NC(=O)Cc3ccc(F)cc3)c2C#N)C1` reads under 0.3 µg/mL. The result for `CCOC(=O)c1sc(Nc2ccc(F)cc2)nc1C` reads under 0.3 µg/mL; that for `O=[N+]([O-])c1cccc(-c2nnc(SCc3cccnc3)o2)c1`, over 47.1 µg/mL; that for `O=C(C[n+]1ccncc1)c1ccccc1.[Br-]`, 6.4 µg/mL.

With `N#Cc1ccccc1NC(=O)CN1CC=C(c2ccccc2)CC1`, the kinetic solubility was found to be 15.7 µg/mL (≈ 49.5 µM). In turn, `CC1CN(c2ccc([N+](=O)[O-])cn2)CC(C)O1` (centres undefined) came in with a kinetic solubility of over 35.6 µg/mL. The result for `CC(C)(C)NC(=O)NC(=O)CN1CCCc2ccccc21` reads 11.9 µg/mL (≈ 41.1 µM); that for `CC1(C)OC(=O)C(=CNc2ccccn2)C(=O)O1`, 28.5 µg/mL (≈ 115 µM). The result for `COc1ccc2[nH]c(=O)c(CNc3ccccc3C)cc2c1` reads 27.6 µg/mL (≈ 93.8 µM). Then `CC1CN(C(=O)COC(=O)c2ccc(F)cc2Cl)CC(C)O1` (centres undefined), with 43.1 µg/mL (≈ 131 µM); and `O=c1oc2ccccc2c(O)c1Cc1cc(Cl)c2cccnc2c1O`, with over 53.1 µg/mL; and `Cc1noc(C)c1S(=O)(=O)Nc1cccc(C(F)(F)F)c1`, with over 48 µg/mL. `COc1ccccc1CCNC(=O)Cn1c(=O)oc2ccccc21` returned a solubility (kinetic) of over 49 µg/mL.

`Clc1ccc(-c2nc(NCCCN3CCOCC3)c3ccccc3n2)cc1` registered a kinetic solubility of 1.4 µg/mL (≈ 3.66 µM).

Take `c1cncc(-c2csc(-c3cccnc3)n2)c1`: the solubility (kinetic) is over 35.9 µg/mL. The result for `CC(C)Cn1c(-c2ccc(Br)cc2)c[nH]c1=S` reads 5.7 µg/mL (≈ 18.3 µM). With `CC(=O)c1ccc(N2CCN(C(=O)Nc3ccc(C)cc3)CC2)cc1`, the solubility (kinetic) turned out to be 1.4 µg/mL (≈ 4.15 µM). The result for `COc1ccc(CN2CCc3ccccc3C2)cc1Br` reads 11.3 µg/mL (≈ 34 µM). The result for `Cc1ccc(C(=O)Nc2ccc(C(=O)N3CCCCC3C)cc2)cc1` (centres undefined) reads 5.2 µg/mL (≈ 15.5 µM). The result for `Cc1ccc2[nH]cc(CCNC(=O)c3ccc4c(c3)OCO4)c2c1` reads 38.3 µg/mL (≈ 119 µM); that for `CC(C)(C)c1ccc(OCCCN2CCCC2)cc1`, 28.6 µg/mL (≈ 109 µM); that for `COc1cccc(OCC(=O)NCC2CCCO2)c1` (centres undefined), over 39.8 µg/mL. Molecule `COc1ccc(NC(=O)COC(=O)C2C3CC4OC(=O)C2C4C3)cc1` (centres undefined) returned a kinetic solubility of over 51.8 µg/mL. Take `Cc1ccccc1CN1C(=O)c2ccccc2Sc2ccc(C(=O)O)cc21`: the solubility (kinetic) stood at 51.1 µg/mL (≈ 136 µM). The result for `COC(=O)CC1C(=O)NCCN1C(=O)c1sc2ccccc2c1Cl` (centres undefined) reads over 55 µg/mL; that for `O=S(=O)(NC(=S)c1ccccc1)c1ccc(Cl)cc1`, over 46.8 µg/mL. The result for `Cc1ccnc2nc(C(=O)NCc3ccccc3)nn12` reads over 40.1 µg/mL; that for `CC(=O)Nc1ccc(NC(=O)COC(=O)c2cnccn2)cc1`, over 47.1 µg/mL. Then `Cl.N#C/C=C/N1CCN(Cc2ccc3c(c2)OCO3)CC1`, with over 46.2 µg/mL. Regarding `CCCNC(=O)NS(=O)(=O)c1ccc(Cl)cc1`, the solubility (kinetic) was over 41.5 µg/mL.

The molecule `CC(C)Nc1nc2nonc2nc1Nc1ccccc1` had a solubility (kinetic) of over 40.5 µg/mL. Then `CCc1cc(C(=O)NCC(C)(C)N2CCOCC2)sc1C`, with over 46.6 µg/mL. Regarding `CN(C)/C=C/C(=O)c1cccc(Oc2ncccn2)c1`, the solubility (kinetic) is over 40.4 µg/mL. The result for `CCN1C(=O)C(=O)N(Cc2ccc(OC)c(F)c2)C1=O` reads 40.4 µg/mL (≈ 144 µM); that for `O=S(=O)(Nc1ccc(-c2cn3ccccc3n2)cc1)c1ccccc1`, 1.5 µg/mL (≈ 4.29 µM); that for `Cc1ccc(C(=O)NC(C)c2ccc(C)c(C)c2)s1` (centres undefined), 3.5 µg/mL (≈ 12.8 µM). Then `O=C(CN1CCN(c2ccc([N+](=O)[O-])cc2Cl)CC1)N1CCOCC1`, with 54.9 µg/mL (≈ 149 µM); and `CSCCC(NC(=O)C1CCCC1)c1nnc2ccccn12` (centres undefined), with over 47.8 µg/mL; and `CN(CC(=O)Nc1ccccc1C(F)(F)F)C(=O)C1CC1`, with over 45 µg/mL. Molecule `Cc1ccc(CC(=O)NC2CCN(C)CC2)cc1` yielded a kinetic solubility of over 37 µg/mL. The result for `O=C1CNC(=O)/C(=C\c2ccccc2)N1` reads over 30.3 µg/mL; that for `Cc1cccc(NC(=O)c2ccc3nccnc3c2)c1C`, 37.1 µg/mL (≈ 134 µM). As for `CCOc1cccc(C(=O)Nc2ccc3ccccc3c2)c1`, the kinetic solubility was under 0.6 µg/mL. The result for `Cc1ccc(C(=O)Nc2nc3ccc(S(C)(=O)=O)cc3s2)cc1C` reads under 0.4 µg/mL. In the case of `O=[N+]([O-])c1cnn2cc(Br)cnc12`, the kinetic solubility was over 36.5 µg/mL.

For `CNc1nc(Cl)c(SC)c(NCc2cccc(OC)c2)n1`, the kinetic solubility was 1 µg/mL (≈ 3.08 µM). The result for `O=C(Cc1ccccc1F)Nc1cccc(S(=O)(=O)N2CCOCC2)c1` reads over 56.8 µg/mL; that for `CC(C)(C)c1ccc(Oc2ccc(NC(=O)CCCC(=O)O)cn2)cc1`, over 53.5 µg/mL; that for `Cc1cc(O)c(C(=O)Cc2csc(C)n2)c(O)c1`, 4.1 µg/mL (≈ 15.6 µM). The result for `Cc1cc(C(=O)NCc2csc(-c3ccccc3)n2)no1` reads over 44.9 µg/mL. Then `COc1ccc(C(=O)Cn2cc[n+](C)c2)cc1.[Br-]`, with over 46.7 µg/mL. `COc1ccccc1NC(=O)NCCN1CCCCC1` gave a solubility (kinetic) of over 41.6 µg/mL. Then `Cn1c(NN)nc2ccccc2c1=O`, with over 28.5 µg/mL; and `O=C(COC(=O)c1cccnc1)NC1CCCc2ccccc21` (centres undefined), with 39.3 µg/mL (≈ 127 µM); and `Cc1ccc(-c2onc3ccc(C(=O)/C=C/N(C)C)cc23)cc1`, with 2.3 µg/mL (≈ 7.51 µM). Then `COC(=O)C1Cc2ccccc2CN1S(=O)(=O)c1ccc(F)cc1` (centres undefined), with 35.4 µg/mL (≈ 101 µM); and `CCCS(=O)(=O)c1ccc(COC(=O)c2ccc(NC(C)=O)cc2)cc1`, with 25.5 µg/mL (≈ 67.9 µM); and `Cc1cccc(OCCc2c(C)[nH]c(=S)[nH]c2=O)c1`, with 3.2 µg/mL (≈ 11.6 µM). Then `O=C(COC(=O)c1cccc(OC(F)F)c1)NC1CCCC1`, with 28.2 µg/mL (≈ 90 µM); and `CC(=O)/C(=C\N(C)C)Sc1ccc(Cl)cc1`, with 17.6 µg/mL (≈ 68.8 µM); and `Cc1ccccc1OCc1nc(-c2cccnc2)no1`, with 30.2 µg/mL (≈ 113 µM). In turn, `CSc1cccc(NC(=O)CNS(=O)(=O)c2ccccc2)c1` yielded a solubility (kinetic) of over 50.5 µg/mL. The molecule `COc1ccc(NC(=O)CSc2nc(C)cs2)c([N+](=O)[O-])c1` came in with a solubility (kinetic) of 45.1 µg/mL (≈ 133 µM). For `COC(=O)Cn1ncc(N(C)Cc2ccccc2)c(Cl)c1=O`, the solubility (kinetic) was over 48.3 µg/mL. The result for `O=C(NCCN1CCOCC1)c1ccc(Cl)cc1` reads over 40.3 µg/mL.
